Where two headings read alike, the source gives them in different places. Marks after values point to notes of the source that are not given here.
Experiments:
[1] = system: Streptococcus pyogenes 8P01; assay: Zone of inhibition assay; type: cell-based; details: 10 μl drop of 250 μg/ml in DMSO
[2] = system: Pseudomonas aeruginosa 9020; assay: Zone of inhibition assay; type: cell-based; set-up: key: (+) 2 to 13 mm zone; (+/−) 1 mm zone; (−) no zone of inhibition; details: 10 μl drop of 250 μg/ml in DMSO
[3] = system: Salmonella typhimurium LT2; assay: Zone of inhibition assay; type: cell-based; details: 10 μl drop of 250 μg/ml in DMSO
[4] = system: Streptococcus pyogenes; assay: Minimum inhibitory concentration (MIC) in broth culture; type: cell-based; details: synthetic compound
Procedure: (§1) Overnight cultures were prepared as for the plate inhibition assays. Culture optical densities (O.D.) were normalized to 0.15 (150 μl path length) by performing 1:1 serial dilutions (150 μl transfer into 150 μl diluent) in a 96 well microtiter plate. Inoculum cell concentrations (colony forming units/ml) were subsequently determined by performing 1:5 serial dilution series (50 μl transfer into 200 μl diluent) in a second microtiter plate. Three dilutions were plated ([…]) by mixing 50 μl of a given dilution into 20 ml of cooled BHI/YE medium and quickly pouring into a petri plate. Test compounds, both natural and synthetic, were dissolved in DMSO (2.0 mg/ml) and diluted into BHI/YE medium to a concentration of 106 μg/ml (5.35% v/v DMSO). Samples of each of the test compounds (150 μl each) were added to 3 separate wells, each containing 150 μl of BHI/YE medium (no DMSO). […] Three plates were prepared for each test organism (n=3 […]=9 per compound, per organism). Additional wells were included in duplicate on each plate for color subtraction, +/-DMSO, and minus compound controls (n=2 […]=6 per control, per organism). Ten μl of normalized inoculum was added per well. Absorbance at 590 nm was read using a […] Victor® Microtiter plate reader; double circular mixing was performed for 10 seconds prior to reading at times 0, 30 and 60 hours. The plates were statically incubated at 28° C. when not being read. Absorbance values were imported into Microsoft Excel® and analyzed graphically.

[5] = system: Bacillus subtilis; assay: as above; type: cell-based; details: synthetic compound
Procedure: as §1

[6] = system: Erwinia herbicola; assay: as above; type: cell-based; details: synthetic compound
Procedure: as §1

[7] = system: Salmonella typhimurium; assay: as above; type: cell-based; details: synthetic compound
Procedure: as §1

[8] = system: Staphylococcus aureus; assay: as above; type: cell-based
Procedure: as §1

[9] = system: Candida guilliermondii Y001; assay: Zone of inhibition assay; type: cell-based; details: 10 μl drop of 250 μg/ml in DMSO
[10] = system: Escherichia coli HS997; assay: Zone of inhibition assay; type: cell-based; details: 10 μl drop of 250 μg/ml in DMSO
[11] = system: Streptomyces griseus 6501; assay: Zone of inhibition assay; type: cell-based; details: 10 μl drop of 250 μg/ml in DMSO
[12] = system: Enterococcus faecalis 4025; assay: Zone of inhibition assay; type: cell-based; set-up: key: (+) 2 to 13 mm zone; (+/−) 1 mm zone; (−) no zone of inhibition; details: 10 μl drop of 250 μg/ml in DMSO
[13] = system: Pythium ultimum 1033; assay: Zone of inhibition assay (fungal plug on plate); type: cell-based; set-up: key: (+) 2 to 13 mm zone; (+/−) 1 mm zone; (−) no zone of inhibition; details: DMSO-dissolved compound on plate, 23° C., 7 days
Procedure: (§2) Pythium ultimum (1033) and Fusarium solani f sp. glycine (90.1) were grown on ¼- strength potato dextrose agar (29) at 23° C. Plugs were cut from the fungal lawn using a #5 cork borer and placed onto the center of a fresh plate containing the DMSO-dissolved compounds. The plates were incubated 7 days, or until the organism covered the plate, at 23° C., in the dark.

[14] = system: Fusarium solani (f. sp. glycine) 90.1; assay: Zone of inhibition assay (fungal plug on plate); type: cell-based; set-up: key: (+) 2 to 13 mm zone; (+/−) 1 mm zone; (−) no zone of inhibition; details: DMSO-dissolved compound on plate, 23° C., 7 days
Procedure: as §2

[15] = system: Staphylococcus aureus 3001; assay: Zone of inhibition assay; type: cell-based; details: 10 μl drop of 250 μg/ml in DMSO
[16] = system: B. cereus var. mycoides 1003; type: cell-based, Bacillus cereus var. mycoides; details: 10 μl drop of 250 μg/ml in DMSO
[17] = system: Erwinia herbicola IRQ; assay: Zone of inhibition assay; type: cell-based; details: 10 μl drop of 250 μg/ml in DMSO

| SMILES | Antibiotic activity (zone of inhibition) ([1]; Natural compound) | Antibiotic activity (zone of inhibition) ([1]; Synthetic compound) | Antibiotic activity (zone of inhibition) ([2]; Natural compound) | Antibiotic activity (zone of inhibition) ([2]; Synthetic compound) | Antibiotic activity (zone of inhibition) ([3]; Natural compound) | Antibiotic activity (zone of inhibition) ([3]; Synthetic compound) | Antibiotic activity (zone of inhibition) ([9]; Natural compound) | Antibiotic activity (zone of inhibition) ([9]; Synthetic compound) | Antibiotic activity (zone of inhibition) ([10]; Natural compound) | Antibiotic activity (zone of inhibition) ([10]; Synthetic compound) | Antibiotic activity (zone of inhibition) ([11]; Natural compound) | Antibiotic activity (zone of inhibition) ([11]; Synthetic compound) | Antibiotic activity (zone of inhibition) ([12]; Natural compound) | Antibiotic activity (zone of inhibition) ([12]; Synthetic compound) | Antibiotic activity (zone of inhibition) ([13]; Natural compound) | Antibiotic activity (zone of inhibition) ([13]; Synthetic compound) | Antibiotic activity (zone of inhibition) ([14]; Natural compound) | Antibiotic activity (zone of inhibition) ([14]; Synthetic compound) | Antibiotic activity (zone of inhibition) ([15]; Natural compound) | Antibiotic activity (zone of inhibition) ([15]; Synthetic compound) | further results |
| --- | --- | --- | --- | --- | --- | --- | --- | --- | --- | --- | --- | --- | --- | --- | --- | --- | --- | --- | --- | --- | --- |
| c1ccc2c([C+](c3c[nH]c4ccccc34)c3c[nH]c4ccccc34)c[nH]c2c1 [Turbomycin A, turbomycin A] | + ((+) 2 to 13 mm zone) | + ((+) 2 to 13 mm zone) | − | −^c | + ((+) 2 to 13 mm zone) | + ((+) 2 to 13 mm zone) | +/− ((+/−) 1 mm zone) | +/− ((+/−) 1 mm zone) | +/− ((+/−) 1 mm zone) | +/−^b ((+/−) 1 mm zone) | + ((+) 2 to 13 mm zone) | + ((+) 2 to 13 mm zone) | − | − | − | − | − | − | + ((+) 2 to 13 mm zone) | + ((+) 2 to 13 mm zone) | minimum inhibitory concentration (MIC) [4]: 6.2 µg/mL; minimum inhibitory concentration (MIC) [5]: 6.2 µg/mL; minimum inhibitory concentration (MIC) [6]: 6.2 µg/mL; minimum inhibitory concentration (MIC) [7]: 12.5 µg/mL; MIC of natural product compared with synthetic compound ([8]; natural product, same experiment as synthetic compound, S. aureus): same MIC; minimum inhibitory concentration (MIC) ([8]; synthetic compound, broth culture, Staphylococcus aureus): 6.2 µg/mL; Antibiotic activity (zone of inhibition) ([16]; Natural compound): + ((+) 2 to 13 mm zone); Antibiotic activity (zone of inhibition) ([16]; Synthetic compound): + ((+) 2 to 13 mm zone); Antibiotic activity (zone of inhibition) ([17]; Natural compound): + ((+) 2 to 13 mm zone); Antibiotic activity (zone of inhibition) ([17]; Synthetic compound): +^a ((+) 2 to 13 mm zone) |
| c1ccc([C+](c2c[nH]c3ccccc23)c2c[nH]c3ccccc23)cc1 [Turbomycin B, turbomycin B] | + ((+) 2 to 13 mm zone) | + ((+) 2 to 13 mm zone) | − | − | + ((+) 2 to 13 mm zone) | + ((+) 2 to 13 mm zone) | +/− ((+/−) 1 mm zone) | +/− ((+/−) 1 mm zone) | +/− ((+/−) 1 mm zone) | +/− ((+/−) 1 mm zone) | + ((+) 2 to 13 mm zone) | + ((+) 2 to 13 mm zone) | − | − | − | − | − | − | + ((+) 2 to 13 mm zone) | + ((+) 2 to 13 mm zone) | Antibiotic activity (zone of inhibition) ([16]; Natural compound): + ((+) 2 to 13 mm zone); Antibiotic activity (zone of inhibition) ([16]; Synthetic compound): + ((+) 2 to 13 mm zone); Antibiotic activity (zone of inhibition) ([17]; Natural compound): + ((+) 2 to 13 mm zone); Antibiotic activity (zone of inhibition) ([17]; Synthetic compound): + ((+) 2 to 13 mm zone) |

— patent US7115753B2, “Triaryl cation antibiotics from environmental DNA” (Wisconsin Alumni Research Foundation, priority 2000, dated 2006)
